In PMC11183015, “In vivo stable ^211At-labeled prostate-specific membrane antigen-targeted tracer using a neopentyl glycol structure” (EJNMMI Radiopharmacy and Chemistry, 2024):
Marks after values point to notes of the source that are not given here.

How the values were obtained:
Type in all cases: in vivo, mouse
[1] = Analysis of radiometabolites in urine by RP-HPLC; settings: normal ddY mice, urine up to 6 h after injection
Experimental: Urine samples were collected from 6-week-old ddY mice 6 h after injection of each ^125I-labeled PSMA derivative (100 µL, 370 kBq). After ethanol precipitation of proteins, the urine samples were filtered through a polycarbonate membrane (0.45 µm) and analyzed by RP-HPLC (System 2).

LNCaP cell xenografts = assay: Biodistribution of radioactivity in tumor-bearing mice; settings: for Radioactivity in Intestine / Radioactivity in Neck / Radioactivity in Stomach: LNCaP tumor-bearing BALB/c-nu/nu mice; for Radioactivity in Blood / Radioactivity in Bone / Radioactivity in Heart / Radioactivity in Kidney / Radioactivity in Liver / Radioactivity in Lung / Radioactivity in Muscle / Radioactivity in Pancreas / Radioactivity in Spleen / Radioactivity in Tumor: male, BALB/c-nu/nu, mouse, in vivo
Experimental: Animal studies were conducted in accordance with the institutional guidelines approved by the Chiba University Animal Care Committee (Permit No. 4–183). Five-week-old male ddY mice and BALB/c-nu/nu mice were purchased from Japan SLC Inc. (Hamamatsu, Japan). LNCaP cells (5.0 × 10^6 cells) were suspended in 100 μL of PBS and Matrigel (BD Biosciences, Franklin Lakes, NJ, USA) in a 1:1 ratio. Tumor xenograft models were prepared via subcutaneous injection of this LNCaP cell suspension into BALB/c nude mice.
Biodistribution studies were conducted using male BALB/c-nu/nu mice bearing LNCaP cell xenografts at 1 and 3 h postinjection of [^211At]At-NpG-D-PSMA (100 µL, 37 kBq) and 1 and 6 h postinjection of ^125I-labeled PSMA derivative (100 µL, 11.1 kBq). In the blocking study, [^125I]I-NpG-D-PSMA was coinjected with 2-PMPA (50 mg/kg weight) into tumor-bearing mice via the tail vein. At 1 h postinjection, the mice were sacrificed. The tissues of interest were excised and weighed, and the radioactivity counts in each tissue were determined using an auto-well gamma counter. Each value was expressed as the mean percent injected dose/g tissue ± SD for a group of 3–5 animals, except those for the stomach, intestine, and thyroid.

[2] = Biodistribution of radioactivity in normal mice
Experimental: Six-week-old male ddY mice were injected via the tail vein with each radiolabeled PSMA derivative. Animals were sacrificed and the organs were dissected at 10 min, 1 h, 3 h, and 6 h after injection. Metabolic cages were used for housing normal mice. The tissues of interest were excised and weighed, and the radioactivity counts in each tissue were determined using an auto-well gamma counter. Each value was expressed as the mean percent injected dose/g tissue ± SD for a group of 3–5 animals, except those for the stomach, intestine, and thyroid.

[3] = normal ddY mice, i.v., 6 h, metabolic cages

Radioactivity in Intestine (LNCaP cell xenografts; 1 h): 2.52 ± 0.29^a %ID
Radioactivity in Neck (LNCaP cell xenografts; 1 h): 0.45 ± 0.13^a %ID
Radioactivity in Stomach (LNCaP cell xenografts; 1 h): 0.23 ± 0.04 %ID
Radioactivity in Intestine (LNCaP cell xenografts; 6 h): 1.87 ± 0.41 %ID
Radioactivity in Neck (LNCaP cell xenografts; 6 h): 3.19 ± 1.28 %ID
Radioactivity in Stomach (LNCaP cell xenografts; 6 h): 0.15 ± 0.07 %ID
Radioactivity in Blood (LNCaP cell xenografts; 1 h): 0.66 ± 0.18 %ID/g
Radioactivity in Bone (LNCaP cell xenografts; 1 h): 0.47 ± 0.12^a %ID/g
Radioactivity in Heart (LNCaP cell xenografts; 1 h): 1.62 ± 0.87 %ID/g
Radioactivity in Kidney (LNCaP cell xenografts; 1 h): 223 ± 5.91^a %ID/g
Radioactivity in Liver (LNCaP cell xenografts; 1 h): 1.85 ± 0.50^a %ID/g
Radioactivity in Lung (LNCaP cell xenografts; 1 h): 2.78 ± 0.93 %ID/g
Radioactivity in Muscle (LNCaP cell xenografts; 1 h): 0.64 ± 0.21^a %ID/g
Radioactivity in Pancreas (LNCaP cell xenografts; 1 h): 1.17 ± 0.38 %ID/g
Radioactivity in Spleen (LNCaP cell xenografts; 1 h): 37.0 ± 10.4 %ID/g
Radioactivity in Tumor (LNCaP cell xenografts; 1 h): 9.19 ± 1.89^a %ID/g
Radioactivity in Blood (LNCaP cell xenografts; 6 h): 0.11 ± 0.03^a %ID/g
Radioactivity in Bone (LNCaP cell xenografts; 6 h): 0.09 ± 0.02 %ID/g
Radioactivity in Heart (LNCaP cell xenografts; 6 h): 0.22 ± 0.06^a %ID/g
Radioactivity in Kidney (LNCaP cell xenografts; 6 h): 226 ± 30.0 %ID/g
Radioactivity in Liver (LNCaP cell xenografts; 6 h): 0.44 ± 0.02^a %ID/g
Radioactivity in Lung (LNCaP cell xenografts; 6 h): 0.59 ± 0.12^a %ID/g
Radioactivity in Muscle (LNCaP cell xenografts; 6 h): 0.27 ± 0.31 %ID/g
Radioactivity in Pancreas (LNCaP cell xenografts; 6 h): 0.26 ± 0.08^a %ID/g
Radioactivity in Spleen (LNCaP cell xenografts; 6 h): 4.55 ± 1.18^a %ID/g
Radioactivity in Tumor (LNCaP cell xenografts; 6 h): 11.0 ± 2.68^a %ID/g
Radioactivity in Blood ([2]; normal ddY mice, i.v., 10 min): 1.48 ± 0.20^b %ID/g
Radioactivity in Bone ([2]; normal ddY mice, i.v., 10 min): 0.68 ± 0.18^a %ID/g
Radioactivity in Heart ([2]; normal ddY mice, i.v., 10 min): 1.12 ± 0.24 %ID/g
Radioactivity in Intestine ([2]; normal ddY mice, i.v., 10 min): 2.49 ± 0.66 %ID
Radioactivity in Kidney ([2]; normal ddY mice, i.v., 10 min): 92.3 ± 11.0^b %ID/g
Radioactivity in Liver ([2]; normal ddY mice, i.v., 10 min): 1.64 ± 0.33^a %ID/g
Radioactivity in Lung ([2]; normal ddY mice, i.v., 10 min): 2.15 ± 0.49^a %ID/g
Radioactivity in Muscle ([2]; normal ddY mice, i.v., 10 min): 0.62 ± 0.18^a %ID/g
Radioactivity in Neck ([2]; normal ddY mice, i.v., 10 min): 0.34 ± 0.09^a %ID
Radioactivity in Pancreas ([2]; normal ddY mice, i.v., 10 min): 0.80 ± 0.16 %ID/g
Radioactivity in Spleen ([2]; normal ddY mice, i.v., 10 min): 2.23 ± 1.10 %ID/g
Radioactivity in Stomach ([2]; normal ddY mice, i.v., 10 min): 0.33 ± 0.09 %ID
Radioactivity in Blood ([2]; normal ddY mice, i.v., 1 h): 0.26 ±0.01 %ID/g
Radioactivity in Bone ([2]; normal ddY mice, i.v., 1 h): 0.36 ± 0.43 %ID/g
Radioactivity in Heart ([2]; normal ddY mice, i.v., 1 h): 0.60 ± 0.37 %ID/g
Radioactivity in Intestine ([2]; normal ddY mice, i.v., 1 h): 3.40 ± 0.86^a %ID
Radioactivity in Kidney ([2]; normal ddY mice, i.v., 1 h): 113.6 ±3.86^ab %ID/g
Radioactivity in Liver ([2]; normal ddY mice, i.v., 1 h): 0.99 ± 0.14^ab %ID/g
Radioactivity in Lung ([2]; normal ddY mice, i.v., 1 h): 0.69 ± 0.16^ab %ID/g
Radioactivity in Muscle ([2]; normal ddY mice, i.v., 1 h): 0.14 ± 0.03 %ID/g
Radioactivity in Neck ([2]; normal ddY mice, i.v., 1 h): 0.07 ± 0.03^a %ID
Radioactivity in Pancreas ([2]; normal ddY mice, i.v., 1 h): 1.40 ± 1.78 %ID/g
Radioactivity in Spleen ([2]; normal ddY mice, i.v., 1 h): 1.05 ± 0.19^ab %ID/g
Radioactivity in Stomach ([2]; normal ddY mice, i.v., 1 h): 0.35 ± 0.30 %ID
Radioactivity in Blood ([2]; normal ddY mice, i.v., 3 h): 0.04 ± 0.01 %ID/g
Radioactivity in Bone ([2]; normal ddY mice, i.v., 3 h): 0.09 ± 0.04 %ID/g
Radioactivity in Heart ([2]; normal ddY mice, i.v., 3 h): 0.06 ± 0.01 %ID/g
Radioactivity in Intestine ([2]; normal ddY mice, i.v., 3 h): 4.96 ± 0.17^ab %ID
Radioactivity in Kidney ([2]; normal ddY mice, i.v., 3 h): 38.6 ± 11.9^a %ID/g
Radioactivity in Liver ([2]; normal ddY mice, i.v., 3 h): 0.43 ± 0.01^ab %ID/g
Radioactivity in Lung ([2]; normal ddY mice, i.v., 3 h): 0.21 ± 0.03^ab %ID/g
Radioactivity in Muscle ([2]; normal ddY mice, i.v., 3 h): 0.10 ± 0.05 %ID/g
Radioactivity in Neck ([2]; normal ddY mice, i.v., 3 h): 0.01 ± 0.00 %ID
Radioactivity in Pancreas ([2]; normal ddY mice, i.v., 3 h): 0.12 ± 0.03 %ID/g
Radioactivity in Spleen ([2]; normal ddY mice, i.v., 3 h): 0.22 ± 0.07^ab %ID/g
Radioactivity in Stomach ([2]; normal ddY mice, i.v., 3 h): 0.08 ± 0.02^b %ID
Radioactivity in Blood ([2]; normal ddY mice, i.v., 6 h): 0.03 ± 0.02 %ID/g
Radioactivity in Bone ([2]; normal ddY mice, i.v., 6 h): 0.05 ± 0.01 %ID/g
Radioactivity in Heart ([2]; normal ddY mice, i.v., 6 h): 0.05 ± 0.05 %ID/g
Radioactivity in Intestine ([2]; normal ddY mice, i.v., 6 h): 4.60 ± 2.56 %ID
Radioactivity in Kidney ([2]; normal ddY mice, i.v., 6 h): 21.2 ± 9.70^a %ID/g
Radioactivity in Liver ([2]; normal ddY mice, i.v., 6 h): 0.53 ±0.02^ab %ID/g
Radioactivity in Lung ([2]; normal ddY mice, i.v., 6 h): 0.09 ± 0.03^a %ID/g
Radioactivity in Muscle ([2]; normal ddY mice, i.v., 6 h): 0.05 ± 0.01 %ID/g
Radioactivity in Neck ([2]; normal ddY mice, i.v., 6 h): 0.02 ± 0.01 %ID
Radioactivity in Pancreas ([2]; normal ddY mice, i.v., 6 h): 0.07 ± 0.04 %ID/g
Radioactivity in Spleen ([2]; normal ddY mice, i.v., 6 h): 0.11 ± 0.03^a %ID/g
Radioactivity in Stomach ([2]; normal ddY mice, i.v., 6 h): 0.23 ± 0.29 %ID
Radioactivity in Feces [2, 3]: 0.45 ± 0.48 %ID
Radioactivity in Urine [2, 3]: 53.3 ± 5.56 %ID
Accumulation in the stomach and thyroid (stability against deiodination) ([2]; normal mice): low accumulation
SMILES: O=C(O)CCC(NC(=O)NC(CCCCNC(=O)C(Cc1ccc2ccccc2c1)NC(=O)C(CCC(=O)O)NC(=O)C(CCC(=O)O)NC(=O)COCC(CO)(CO)C[125I])C(=O)O)C(=O)O [[^125I]I-NpG-L-PSMA]
Form of radioactivity excreted in urine [1]: intact [^125I]I-NpG-L-PSMA and as radiometabolites
